Laboratory results taken from patent publication US20090149540A1, “Compositions and Methods for Attenuating Mitochondria-Mediated Cell Injury” (priority 2005, published 2009).

Tests used:
isolated mitochondria = experiment: Chemiluminescent NO analysis of total S-nitrosothiol in isolated mitochondria; format: biochemical, rat
Protocol: At concentrations above 250 μM, secondary reactions such as free S-nitrosothiol or NO2^− formation were observed.
(§1) Rat heart mitochondria were isolated using differential centrifugation (Tompkins, et al. (2005) Biochim. Biophys. Acta PMID: 16278076). Protein was determined by the Folin-phenol method (Lowry, et al. (1951) J. Bio. Chem. 193:265-75) against a standard curve constructed using bovine serum albumin. Mitochondrial incubations and all subsequent steps were performed in the dark. One mg of mitochondrial protein was suspended in 1 mL of mitochondrial respiration buffer (Tompkins, et al. (2005) supra) containing respiratory substrates glutamate (5 mM), malate (2.5 mM) and succinate (5 mM). […] Samples were centrifuged (5 minutes, 14,000×g), and supernatants removed. The pellets were then resuspended in 1 mL of respiration buffer, and centrifuged again. Pellets were frozen in liquid N2 for subsequent analysis. For ONOO^− treatments, 4 μL of 25 mM ONOO^− stock (100 μM final concentration) was added the cap of the reaction tube, the cap quickly closed and the tube shaken immediately. The process was then repeated twice at 30 second intervals, for a total of 3 additions. Mitochondria were then pelleted, washed, and frozen as for S-nitrosoglutathione samples. Complex I activity was assayed as the rotenone-sensitive oxidation of NADH, at 340 nm in the presence of coenzyme Q1 (Borutaite, et al. (2000) supra). Complex IV was assayed by monitoring the cyanide-sensitive first-order oxidation of reduced cytochrome c, at 550 nm according to established methods (Cleeter, et al. (1994) supra).
Chemiluminescent analysis of S-nitrosothiol content was performed on samples originating from blue-native gels, intact mitochondria and SUPEROSE™ 6 chromatography fractions, according to known methodologies (Yang, et al. (2003) Free Radic. Res. 37:1-10). […] Each sample was run in duplicate and quantified using a standard curve created with known concentrations of NaNO2.

[1] = system: entire mitochondrial protein extract; experiment: Biotin-switch analysis of mitochondrial protein S-nitrosation; format: biochemical, rat; details: for S-nitrosation of mitochondrial protein, comparison of NO* donors: entire mitochondrial protein extract
Protocol: as §1
For biotin-switch analysis, intact mitochondrial pellets (1 mg protein solubilized in extraction buffer) or chromatography column fractions were analyzed in accordance with known methods (Jaffrey & Snyder (2001) supra). Samples were separated in duplicate on non-reducing SDS-PAGE gels; half the gel was stained with COOMASSIE® blue, and the other half blotted and probed with streptavidin-HRP and ECL™ detection (GE biosciences) Blots and stained gels were aligned, and S-nitrosated proteins excised, trypsinized, and identified by peptide mass fingerprinting. Mass spectra (MALDI-TOF) were analyzed using the MASCOT™ algorithm available on the world-wide web at matrixscience.com.

mitochondrial complex I = molecular target: T1, mitochondrial complex I (Rattus norvegicus, UniProt Q66HF1); experiment: Complex I activity (rotenone-sensitive NADH/Co-Q1 oxidation/reduction) in treated mitochondria; format: biochemical; details: S-nitrosoglutathione treatment of mitochondria; exposure to light
T1 construct: Rat heart mitochondria were isolated using differential centrifugation; from tissue; host or cells: rat heart mitochondria (male Sprague-Dawley rats)
T1 sequence (Q66HF1 24-727, one chain of several): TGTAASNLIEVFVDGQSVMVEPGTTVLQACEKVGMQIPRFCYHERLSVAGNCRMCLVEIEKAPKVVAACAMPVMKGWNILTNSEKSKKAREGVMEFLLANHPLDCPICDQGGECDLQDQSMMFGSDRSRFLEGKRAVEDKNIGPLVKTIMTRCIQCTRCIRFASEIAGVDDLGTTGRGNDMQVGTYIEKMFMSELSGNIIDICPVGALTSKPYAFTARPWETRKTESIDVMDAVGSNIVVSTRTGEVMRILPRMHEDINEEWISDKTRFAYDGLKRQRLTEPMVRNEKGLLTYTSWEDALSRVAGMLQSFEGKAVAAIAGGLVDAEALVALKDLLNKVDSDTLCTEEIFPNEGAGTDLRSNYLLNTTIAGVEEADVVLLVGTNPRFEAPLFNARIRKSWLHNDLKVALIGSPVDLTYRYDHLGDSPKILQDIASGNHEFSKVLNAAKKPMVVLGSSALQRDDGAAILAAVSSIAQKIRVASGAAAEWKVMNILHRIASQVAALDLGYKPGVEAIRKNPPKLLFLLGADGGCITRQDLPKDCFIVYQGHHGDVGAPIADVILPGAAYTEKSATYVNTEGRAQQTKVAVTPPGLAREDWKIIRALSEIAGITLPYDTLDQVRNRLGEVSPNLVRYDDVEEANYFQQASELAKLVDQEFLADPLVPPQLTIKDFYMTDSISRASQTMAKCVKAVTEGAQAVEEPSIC
Description: Assuming heart mitochondria contain ˜50 pmol complex I per mg protein (Schagger & Pfeiffer (2001) J. Biol. Chem. 276:37861-37867), it was observed that S-nitrosation plateaud at a ˜7:1 mol/mol ratio (i.e., 7 mols S-nitrosothiol per mol complex I), while maximum complex I inhibition was ˜20-25%. This apparent mis-match between the stoichiometry of S-nitrosation (7:1) and the degree of inhibition (25%) may reflect S-nitrosation of complex I on multiple subunits. Alternatively, since the spectrophotometric complex I activity assay was performed at 340 nm, close to the absorption maxima of S-nitrosothiols (335 nm), S-nitrosothiols within complex I may have been destroyed during the assay, leading to underestimation of inhibition by S-nitrosation.
Rat heart mitochondria were isolated using differential centrifugation (Tompkins, et al. (2005) Biochim. Biophys. Acta PMID: 16278076). Protein was determined by the Folin-phenol method (Lowry, et al. (1951) J. Bio. Chem. 193:265-75) against a standard curve constructed using bovine serum albumin. Mitochondrial incubations and all subsequent steps were performed in the dark. One mg of mitochondrial protein was suspended in 1 mL of mitochondrial respiration buffer (Tompkins, et al. (2005) supra) containing respiratory substrates glutamate (5 mM), malate (2.5 mM) and succinate (5 mM). […]

[2] = radioactive tracer studies in whole animals; cited from earlier work
[3] = system: isolated adult rat cardiomyocytes; experiment: Cardiomyocyte model of ischemia-reperfusion injury, cell viability by Trypan blue exclusion; format: cell-based; details: 10 μM or 20 μM; 1 hour ischemia, 30 minutes reoxygenation
Protocol: Isolated adult rat cardiomyocytes were subjected to 1 hour ischemia (anoxic, glucose free medium, pH 6.5) followed by 30 minutes reoxygenation (labeled “HR”). Cell viability was assayed by Trypan blue exclusion. […] All data are means±SEM, N>3.
Adult rat cardiomyocytes were prepared by collagenase perfusion according to standard methods (Dai, et al. (2001) supra), yielding ˜4×10^6 cells per heart, >80% rod-shaped and viable. Incubations were in a shaking water bath at 37° C., each utilizing 5×10^5 cells in 5 mL of the KH buffers described below. For the control, cells were incubated for 2 hours in oxygenated KH buffer (95/5 O2/CO2). For ischemia-reperfusion treatment, cells were subjected to 30 minutes in oxygenated KH buffer, 1 hour in “ischemic” KH buffer (95/5 N2/CO2, pH 6.5, no glucose), and 30 minutes in oxygenated KH buffer. For the ischemia-reperfusion injury and test compound group of cells, ischemia-reperfusion injury was carried out as described above with test compound present during the 30 minute equilibration prior to ischemia-reperfusion and absent during ischemia. […] At the end of each protocol, cell viability was assayed (Trypan blue), and mitochondrial function determined (measurement of ΔΨm with the fluorescent probe TMRE, respiration with an O2 electrode, and S-nitrosothiol content by chemiluminescence and biotin-switch.

For `N[C@@H](CCC(=O)N[C@@H](CSN=O)C(=O)NCC(=O)O)C(=O)O` [S-nitrosoglutathione], the “concentration at which total S-nitrosothiol (free plus protein-bound) approaches saturation” value (isolated mitochondria; 10 μM to 1 mM) was about 300 µM, the total S-nitrosothiol (isolated mitochondria; 100 μM treatment) was ~1700 pmol/mg mitochondrial protein and the “concentrations at which secondary reactions such as free S-nitrosothiol or NO2− formation were observed” value (isolated mitochondria; isolated mitochondria) was “above 250 μM”. The “concentration at which formation of protein bound S-nitrosothiol saturates” value ([1]; biotin-switch and chemiluminescent data together) was about 250 µM, the “concentration at which plateau of mitochondrial protein S-nitrosation is reached” value ([1]; dose response over the range 50-250 μM) was about 200 µM and the “S-nitrosation of mitochondrial protein, comparison of NO* donors” value (“S-nitrosation … of NO* donors” below) [1] was “far more S-nitrosation than DETA-NONOate or ONOO^−”. For the same molecule, the “complex I inhibition and its reversibility” value (mitochondrial complex I) was “complex I inhibition that was reversible by exposure of mitochondria to light”.

In the case of `NCCN(CCN)/[N+]([O-])=N/O` [DETA-NONOate], the “S-nitrosation … of NO* donors” value [1] is reported as “S-nitrosoglutathione resulted in far more S-nitrosation than DETA-NONOate”.

In the case of `O=NOO` [ONOO^−, peroxynitrite], the “S-nitrosation … of NO* donors” value [1] is reported as “S-nitrosoglutathione resulted in far more S-nitrosation than DETA-NONOate or ONOO^−”.

In the case of `CC(S)C(=O)NCC(=O)O` (stereo not drawn) [2-Mercaptopropionylglycine], the “cell entry and mitochondrial accumulation” value [2] is given as “readily enters cells and accumulates in mitochondria”.

For `CC(SN=O)C(=O)NCC(=O)O` (stereo not drawn) [S-nitroso-2-mercaptopropylglycine], the “protection of cardiomyocyte viability from ischemia-reperfusion injury” value [3] was “significant protection of cardiomyocytes from ischemia-reperfusion injury” and the “S-nitrosation of mitochondrial proteins compared with S-nitrosoglutathione” value ([1]; same concentrations, 10-100 μM) was “much greater degree of S-nitrosation of mitochondrial proteins than did S-nitrosoglutathione”.
